From the NIST ThermoML archive (doi:10.1016/j.jct.2017.05.028)

Test: wn = mass fraction of the nth substance listed
Conditions: 101 kPa, Liquid, digital holographic interferometry

CCCCCO [pentan-1-ol] + CCCCCCC
binary diffusion coefficient [m2/s]
Conditions	w1 = 0.05	w1 = 0.15	w1 = 0.25	w1 = 0.35	w1 = 0.45	w1 = 0.55	w1 = 0.65	w1 = 0.75	w1 = 0.85	w1 = 0.95
288.15 K	1.65e-09	1.19e-09	8.88e-10	7.12e-10	5.95e-10	5.43e-10	5.49e-10	5.77e-10	6.09e-10	6.5e-10
298.15 K	1.88e-09	1.43e-09	1.13e-09	9.36e-10	8.38e-10	7.8e-10	7.86e-10	8.09e-10	8.4e-10	8.76e-10
308.15 K	2.11e-09	1.69e-09	1.38e-09	1.18e-09	1.07e-09	1.02e-09	9.99e-10	1.04e-09	1.07e-09	1.12e-09
318.15 K	2.42e-09	1.96e-09	1.64e-09	1.42e-09	1.33e-09	1.29e-09	1.28e-09	1.31e-09	1.36e-09	1.38e-09

CCCCO [butan-1-ol] + CCCCCCC
binary diffusion coefficient [m2/s]
Conditions	w1 = 0.05	w1 = 0.15	w1 = 0.25	w1 = 0.35	w1 = 0.45	w1 = 0.55	w1 = 0.65	w1 = 0.75	w1 = 0.85	w1 = 0.95
288.15 K	1.86e-09	1.39e-09	1.04e-09	8.03e-10	6.87e-10	6.25e-10	6.28e-10	6.75e-10	7.03e-10	7.54e-10
298.15 K	2.09e-09	1.63e-09	1.26e-09	1.06e-09	9.24e-10	8.84e-10	8.71e-10	9.06e-10	9.54e-10	1.01e-09
308.15 K	2.4e-09	1.92e-09	1.57e-09	1.33e-09	1.19e-09	1.13e-09	1.11e-09	1.13e-09	1.2e-09	1.26e-09
318.15 K	2.73e-09	2.24e-09	1.87e-09	1.6e-09	1.49e-09	1.42e-09	1.4e-09	1.44e-09	1.48e-09	1.54e-09
